According to article PMC11082890, “Phenazine Cations as Anticancer Theranostics” (Journal of the American Chemical Society, 2024):

Experiments:
Test in all cases: MTT cytotoxicity assay, 48 h
Format in all cases: cell-based
[1] = test system: MCF7 human breast cancer cells; details: MCF7, 48 h treatment, value (S.D.)
Procedure: (§1) First, the cytotoxicity of 1^2+ and 2^2+ toward several cancer cell lines was examined. The viability of cells exposed to their chloride salts was assessed by an MTT (3-(4,5-dimethylthiazol-2-yl)-2,5-diphenyltetrazolium bromide) assay, and the common chemotherapeutic agent cisplatin was employed as a positive control, Figure 3.
(§2) S2. Tissue Culture and Microscopy Methods
(§3) Cell media was purchased sterile from Sigma-Aldrich. A2780 human ovarian cancer cells and A2780CIS human ovarian cisplatin resistant cells were cultured in RPMI-1640 medium. MCF7 human breast cancer cells, T24 human bladder cancer cells and HEK293 human embryonic kidney cells were cultured in DMEM medium. All growth medium was supplemented with 10 % fetal bovine serum (FBS), 2 mM L-Glutamine, 100 IU mL-1 penicillin and 100 μg mL-1 streptomycin and sterile filtered before use. Cell cultures were grown by incubation at 37 ᵒC with 5 % CO2 and were frequently passaged with trypsin when confluency of around 80 % was reached.
(§4) All cells used were at passage numbers below 50.
(§5) S2b. Preparation of Compounds
(§6) Stock solutions of compounds were solubilized in 10 % PBS (Phosphate Buffer Saline) and 90 % media.
(§7) Solutions were then sterile filtered through a 0.22 μm filter prior to use.
(§8) S2c. Cytotoxicity (MTT Assay) and Determination of IC50 Values
(§9) MTT (3-(4,5-Dimethylthiazol2-yl)-2,5-diphenyltetrazolium bromide)) is a yellow tetrazolium salt that is reduced to formazan in metabolically active cells. Therefore, the purple coloured formazan can be dissolved and quantified through absorbance as a measure of cell viability. Cells were seeded in 48 well plates at a density of 5 x 10^4 cells per well and incubated for 24 hours prior to treatment. After 24 hours, compound (10 % PBS:
(§10) 90 % medium) was added over a concentration gradient from 0.1 to 100 μM with each concentration in triplicate. Some wells were treated with a concentration range of cisplatin as a positive control. Cells were incubated with the relevant concentrations of compound for 48 hours, after which the media was removed and replaced with MTT (0.5 mg mL-1 in serum-free medium) for a period of 30-45 minutes. The MTT solution was then carefully removed and the formazan eluted with isopropanol (130 μL per well). 100 μL from each well was transferred into a 96 well plate to enable quantification of cell viability using a plate reader measuring absorbance at 570 nm. An average absorbance was obtained for each concentration and the cell viability was then calculated as a percentage of the untreated negative control wells. A graph of cell viability against concentration was plotted and the IC50 (the concentration at which the cell viability is 50 %) determined by interpolation. The IC50 values are reported as an average of at least 3 independent biological replicates. […]
(§11) All plates were then incubated for another 24 hours following light treatment. Media was then removed from each well and replaced with MTT (0.5 mg mL-1 in serum-free medium) for 30-45 minutes. […]
(§12) The data was then plotted as a graph of cell viability against concentration to determine the IC50 values by interpolation before and after light treatment.

[2] = test system: A2780 human ovarian cancer cells; details: A2780, 48 h treatment, value (S.D.)
Procedure: as §1, §2, §3, §4, §5, §6, §7, §8, §9, §10, §11, §12

[3] = test system: HEK293 human embryonic kidney cells; details: HEK293 noncancerous cells, 48 h treatment, value (S.D.)
Procedure: as §1, §2, §3, §4, §5, §6, §7, §8, §9, §10, §11, §12

[4] = test system: T24 human bladder cancer cells; details: T24, 48 h treatment, value (S.D.)
Procedure: as §1, §2, §3, §4, §5, §6, §7, §8, §9, §10, §11, §12

[5] = test system: A2780CIS human ovarian cisplatin resistant cells; details: 48 h treatment, value (S.D.)
Procedure: as §1, §2, §3, §4, §5, §6, §7, §8, §9, §10, §11, §12

Structure (SMILES): N.N.[Cl][Pt][Cl] [cisplatin]
- IC50 [1]: 26 µM
- IC50 [2]: 1300 nM
- IC50 [3]: 5 µM
- IC50 [4]: 3000 nM
- IC50 [5]: 19 µM
